Experimental data published in patent publication US11434537B2, “Biomarker for prognosis of colorectal cancer” (NATIONAL CHENG KUNG UNIVERSITY, priority 2020, dated 2022).

What was measured:
Format in all cases: cell-based, human
HCT116 cells [1] = experiment: Wound-healing and Transwell migration assays, HCT116; settings: 10 μM for 48 h, HCT116 stable cells, wound healing 24 h (FIG. 14(e))
Description: Then, HCT116 cells transfected with miR-338-5p were assessed for cell migration in vitro with a wound-healing assay analyzed at 24 h and a Transwell assay analyzed at 48 h (Corning, Corning City, N.Y.). Cell invasion in vitro was estimated using a Transwell assay, in which cells were seeded on Transwell columns coated with a Matrigel membrane (BD Biosciences, San Jose, Calif.). Then, cells on the bottom of membrane were counted after 96 h. […] Thus, miR-338-5p promotes CRC migration and invasion in vitro.

LC3 puncta = LC3 puncta formation by immunofluorescent assay; settings: 10 μM, SW480 cells
Description: (§1) FIGS. 14(a) to 14(f) show the involvement of autophagy in miR-338-5p-related CRC migration and invasion in vitro. […] LC3 puncta were labelled with anti-LC3 antibody and fluorescent isothiocyanate-conjugated goat anti-rabbit IgG (green fluorescence). SW480 cell nuclei were stained with Hoechst 33258 (blue fluorescence). Images were photographed using florescent microscopy (the scale bar represents 10 μm). Data are presented as median (IQR) (n=5) (P value was analyzed using Mann-Whitney tests). […] (100 nM). […] Data are presented as median (IQR) (n=5) (P value was analyzed using Mann-Whitney tests). The scale bar represents 50 μm. […] Number of migrated cells was counted after 24 h. The scale bar represents 100 μm. Data are expressed as median (IQR) (n=6) (P value was analyzed using MannWhitney tests). […] The scale bar represents 50 μm. Data are expressed as means±SEM (n=8) (P value was analyzed using t tests).
(§2) To clarify the mechanism(s) underlying miR-338-5p induced migration and invasion of CRC, the involvement of autophagy was assessed. Specifically, the LC3 puncta (microtubule associated protein 1A/1B-LC3) formation and LC3 type II (LC3-II) protein expression were examined in cells treated with amiodarone (an autophagy inducer) by immunofluorescent assay.

LC3-II = experiment: Western blot of LC3-II (autophagy); settings: 10 μM, 48 h, CRC cells (SW480, HCT116)
Description: as §1
FIGS. 15(a) to 15(c) show the involvement of autophagy or EMT pathway in miR-338-5p-related CRC migration in vitro. […] Representative results of Transwell assays are also shown. […] Data are presented as means±SEM (n=8) (P values were analyzed using t tests). […] The number of migrated cells is shown as means±SEM (n=8) (P values were analyzed using t tests).
To clarify the mechanism(s) underlying miR-338-5p induced migration and invasion of CRC, the involvement of autophagy was assessed. […]

HCT116 cells [2] = experiment: Transwell invasion assay, HCT116; settings: amiodarone-treated HCT116 cells, Transwell invasion 48 h (FIG. 14(f))
Description: as §1, §2

SW480 cells = experiment: Transwell migration assay, SW480; settings: 10 μM, Transwell (FIG. 14(c))

**Q.** With CCCCc1oc2ccccc2c1C(=O)c1cc(I)c(OCCN(CC)CC)c(I)c1 [Amiodarone, amiodarone] as the compound, how does the cell migration (HCT116 cells [1]) read?
**A.** inhibition of cell migration

**Q.** What about the LC3 puncta formation (LC3 puncta) of the same compound?
**A.** induced LC3 puncta formation

**Q.** And the LC3-II expression (LC3-II)?
**A.** activated LC3-II expression

**Q.** And the cell invasion (HCT116 cells [2])?
**A.** inhibition of cell invasion

**Q.** And the cell migration (SW480 cells)?
**A.** inhibition of cell migration
